Measured values published in paper PMC12775434, “Ultra-large virtual screening unveils potent agonists of the neuromodulatory orphan receptor GPR139” (Nature Communications, 2025).
Values joined by “and” are separate entries in the source; they are usually repeats but may differ in a detail not shown here. Equal values may be shown once. Read-outs that look alike come from different tables or passages of the source.

What was measured:
Assay type in all cases: cell-based
GPR139 [1] = biological target: T1, GPR139 (Homo sapiens, UniProt Q6DWJ6); test: Ca2+ mobilization assay, agonist mode, stable GPR139-CHOk1 cell line; settings: for fold decrease in potency relative to a similar phenyl substituted compound (1.3): Ca2+ mobilization EC50; for Emax: normalized to Lundbeck Cmp 1a, read-out: Emax (%) Ca2+
T1 sequence (Q6DWJ6 1-353): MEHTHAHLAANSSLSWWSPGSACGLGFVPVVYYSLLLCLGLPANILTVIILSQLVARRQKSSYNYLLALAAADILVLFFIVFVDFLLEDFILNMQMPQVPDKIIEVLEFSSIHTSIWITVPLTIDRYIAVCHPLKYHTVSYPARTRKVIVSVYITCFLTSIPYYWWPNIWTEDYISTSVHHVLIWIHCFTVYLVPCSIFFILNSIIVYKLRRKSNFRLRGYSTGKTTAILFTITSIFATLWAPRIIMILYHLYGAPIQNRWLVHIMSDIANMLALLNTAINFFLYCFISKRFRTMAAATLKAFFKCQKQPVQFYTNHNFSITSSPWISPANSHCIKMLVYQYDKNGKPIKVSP
Procedure, shortened: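 Agonist activity of compounds is assessed in stably transfected CHO-K1 cells using the calcium dye Fluo-4 at 37 °C in HEPES-buffered HBSS (pH 7.4). Efficacy is expressed relative to the reference agonist Lundbeck Cmp 1a, set as 100%.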

GPR139 [2] = biological target: T1, GPR139; test: Ca2+ mobilization assay, antagonist mode (EC80 800 nM Lundbeck Cmp 1a after 20 min preincubation), GPR139-CHOk1; settings: individual replicates (Supplementary Figure 4)
Procedure, shortened: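 Fluo-4-loaded GPR139-CHOk1 cells in HEPES-buffered HBSS (pH 7.4, 2.5 mM probenecid) given test compounds at 10 µM, then after 20 min challenged with 800 nM Lundbeck Cmp 1a (EC80). Calcium fluorescence read at 37 °C, 485/525 nm.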

[3] = biological target: T2, human muscarinic acetylcholine M1 receptor (M1R) (Homo sapiens, UniProt P11229); test: Ca2+ mobilization counter-screen in M1R-CHOk1 cells; settings: individual replicates (Supplementary Figure 5)
T2 sequence (P11229 1-460): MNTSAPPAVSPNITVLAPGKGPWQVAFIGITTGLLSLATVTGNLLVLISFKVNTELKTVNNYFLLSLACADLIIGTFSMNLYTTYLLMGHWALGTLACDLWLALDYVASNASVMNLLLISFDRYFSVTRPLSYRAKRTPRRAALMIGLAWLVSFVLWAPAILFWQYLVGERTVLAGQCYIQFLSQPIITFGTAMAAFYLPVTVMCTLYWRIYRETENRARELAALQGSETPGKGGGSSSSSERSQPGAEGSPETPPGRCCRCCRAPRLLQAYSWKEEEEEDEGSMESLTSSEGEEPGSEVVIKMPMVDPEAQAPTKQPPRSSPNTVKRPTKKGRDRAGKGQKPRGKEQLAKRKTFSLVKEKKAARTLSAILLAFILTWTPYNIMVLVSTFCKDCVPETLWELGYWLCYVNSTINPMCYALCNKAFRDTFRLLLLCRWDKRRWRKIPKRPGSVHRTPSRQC
Procedure, shortened: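 Intracellular calcium is tracked by Fluo-4 fluorescence at 37 °C in M1R-CHOk1 cells, with compounds dispensed automatically once baseline is taken. Buffer is HBSS with 20 mM HEPES, pH 7.4, plus 2.5 mM probenecid.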

[4] = Agonist mode, individual replicates (Supplementary Figure 4)
[5] = Supplementary Table 2, mean ± SEM, read-out: pEC50 Ca2+ (converted)
[6] = Supplementary Table 2, mean ± SEM
[7] = log [Compound] M = -4.5, individual replicate columns
[8] = log [Compound] M = -5.0, individual replicate columns
[9] = log [Compound] M = -5.5, individual replicate columns
[10] = log [Compound] M = -6.0, individual replicate columns
[11] = log [Compound] M = -6.5, individual replicate columns
[12] = log [Compound] M = -7.0, individual replicate columns
[13] = log [Compound] M = -7.5, individual replicate columns
[14] = log [Compound] M = -8.0, individual replicate columns
[15] = log [Compound] M = -8.5, individual replicate columns
[16] = log [Compound] M = -9.0, individual replicate columns

fold decrease in potency relative to a similar phenyl substituted compound (1.3) (GPR139 [1]) | EC50 (GPR139 [1]; [5]) [µM] | Emax (GPR139 [1]; [6]) [%] | EC50 (GPR139 [1]; GPR139-CHOk1, read-out: EC50, Ca2+ mobilization) [µM] | SMILES | Ca2+ signal (% of Cmp 1a) (GPR139 [1]; [4]) | Ca2+ signal (% of Cmp 1a) (GPR139 [1]; [7]) | Ca2+ signal (% of Cmp 1a) (GPR139 [1]; [8]) | Ca2+ signal (% of Cmp 1a) (GPR139 [1]; [9]) | Ca2+ signal (% of Cmp 1a) (GPR139 [1]; [10]) | Ca2+ signal (% of Cmp 1a) (GPR139 [1]; [11]) | Ca2+ signal (% of Cmp 1a) (GPR139 [1]; [12]) | Ca2+ signal (% of Cmp 1a) (GPR139 [1]; [13]) | Ca2+ signal (% of Cmp 1a) (GPR139 [1]; [14]) | Ca2+ signal (% of Cmp 1a) (GPR139 [1]; [15]) | Ca2+ signal (% of Cmp 1a) (GPR139 [1]; [16]) | Ca2+ signal (% of Cmp 1a) (GPR139 [2]) | Ca2+ signal (% of Carbachol) [3] | change in potency with larger substituents on the thiophene ring (GPR139 [1]; Ca2+ mobilization)
4- to 16 fold | 0.794 | 98 ± 3 | – | Cc1ccnc(-c2nc(CC(=O)NC(C)c3ccccc3)no2)c1 (stereo not drawn) [Compound 1.17, CC(C1=CC=CC=C1)NC(CC2=NOC(C3=NC=CC(C)=C3)=N2)=O] | 56 % of Cmp 1a and 85 % of Cmp 1a and 81 % of Cmp 1a | 97 % of Cmp 1a (2×) and 99 % of Cmp 1a and 98 % of Cmp 1a and 90 % of Cmp 1a | 111 % of Cmp 1a and 99 % of Cmp 1a and 92 % of Cmp 1a and 73 % of Cmp 1a and 91 % of Cmp 1a | 133 % of Cmp 1a and 107 % of Cmp 1a and 62 % of Cmp 1a and 54 % of Cmp 1a and 75 % of Cmp 1a | 82 % of Cmp 1a and 74 % of Cmp 1a and 57 % of Cmp 1a and 42 % of Cmp 1a and 56 % of Cmp 1a | 39 % of Cmp 1a and 41 % of Cmp 1a and 22 % of Cmp 1a and 13 % of Cmp 1a and 21 % of Cmp 1a | 27 % of Cmp 1a and 24 % of Cmp 1a and 4.3 % of Cmp 1a and 2.59 % of Cmp 1a and 7 % of Cmp 1a | 12 % of Cmp 1a (2×) and -2.74 % of Cmp 1a and 7 % of Cmp 1a and 4.7 % of Cmp 1a | 7 % of Cmp 1a and 3 % of Cmp 1a and -1 % of Cmp 1a and 10 % of Cmp 1a and 2.65 % of Cmp 1a | 7 % of Cmp 1a and 1.19 % of Cmp 1a and 6 % of Cmp 1a (2×) and 3 % of Cmp 1a | 11 % of Cmp 1a and 1.67 % of Cmp 1a and 3 % of Cmp 1a and 4.53 % of Cmp 1a and 4.33 % of Cmp 1a | 4 % of Cmp 1a and 35 % of Cmp 1a and 2.33 % of Cmp 1a | -5.46 % of Carbachol and 6 % of Carbachol and 7.55 % of Carbachol | –
– | – | 72 ± 5 | 1 | COc1ccc(-c2nc(CC(=O)NC(C)c3ccccc3)no2)cc1 (stereo not drawn) [Compound 1.18, COC1=CC=C(C2=NC(CC(NC(C3=CC=CC=C3)C)=O)=NO2)C=C1] | 43 % of Cmp 1a and 66 % of Cmp 1a and 77 % of Cmp 1a | 87 % of Cmp 1a and 72 % of Cmp 1a and 75 % of Cmp 1a | 75 % of Cmp 1a and 67 % of Cmp 1a and 70 % of Cmp 1a | 73 % of Cmp 1a and 53 % of Cmp 1a and 59 % of Cmp 1a | 61 % of Cmp 1a and 23 % of Cmp 1a and 42 % of Cmp 1a | 30 % of Cmp 1a and 3.38 % of Cmp 1a and 24 % of Cmp 1a | 7 % of Cmp 1a and 9 % of Cmp 1a and 8 % of Cmp 1a | 6 % of Cmp 1a and 11 % of Cmp 1a and 5.71 % of Cmp 1a | -0.63 % of Cmp 1a and 3 % of Cmp 1a and 8 % of Cmp 1a | 3.39 % of Cmp 1a and 6.59 % of Cmp 1a and 3.49 % of Cmp 1a | 0.103 % of Cmp 1a and 9 % of Cmp 1a and 2.64 % of Cmp 1a | 26 % of Cmp 1a and 19 % of Cmp 1a and 8 % of Cmp 1a | 2 % of Carbachol and 2.18 % of Carbachol and -0.905 % of Carbachol | –
4- to 16 fold | 1 | 109 ± 10 | – | Cc1cc(-c2nc(CC(=O)NC(C)c3ccccc3)no2)ccn1 (stereo not drawn) [Compound 1.19, CC(C1=CC=CC=C1)NC(CC2=NOC(C3=CC(C)=NC=C3)=N2)=O] | 76 % of Cmp 1a and 74 % of Cmp 1a and 71 % of Cmp 1a | 117 % of Cmp 1a and 90 % of Cmp 1a and 116 % of Cmp 1a | 97 % of Cmp 1a and 89 % of Cmp 1a and 99 % of Cmp 1a | 77 % of Cmp 1a and 75 % of Cmp 1a and 88 % of Cmp 1a | 61 % of Cmp 1a and 62 % of Cmp 1a and 60 % of Cmp 1a | 30 % of Cmp 1a and 19 % of Cmp 1a and 26 % of Cmp 1a | 9 % of Cmp 1a and 6.33 % of Cmp 1a and 5.33 % of Cmp 1a | 4.67 % of Cmp 1a and 0.667 % of Cmp 1a and -2.67 % of Cmp 1a | 3 % of Cmp 1a and -3.33 % of Cmp 1a and -3.67 % of Cmp 1a | 13 % of Cmp 1a and -4.67 % of Cmp 1a and 2.33 % of Cmp 1a | 7 % of Cmp 1a and -8 % of Cmp 1a and -1.33 % of Cmp 1a | 5.67 % of Cmp 1a and -2 % of Cmp 1a and -8 % of Cmp 1a | 8 % of Carbachol and -12 % of Carbachol and 7 % of Carbachol | –
– | 1.26 | 86 ± 11 | – | Cc1ccc(-c2nc(CC(=O)NC(C)c3ccccc3)no2)cc1C (stereo not drawn) [Compound 1.20, CC(C1=CC=CC=C1)NC(CC2=NOC(C3=CC(C)=C(C)C=C3)=N2)=O] | 61 % of Cmp 1a and 51 % of Cmp 1a and 42 % of Cmp 1a | 64 % of Cmp 1a and 88 % of Cmp 1a and 90 % of Cmp 1a | 59 % of Cmp 1a and 87 % of Cmp 1a and 93 % of Cmp 1a | 48 % of Cmp 1a and 72 % of Cmp 1a and 74 % of Cmp 1a | 21 % of Cmp 1a and 45 % of Cmp 1a and 55 % of Cmp 1a | 9 % of Cmp 1a and 20 % of Cmp 1a and 28 % of Cmp 1a | 10 % of Cmp 1a and 20 % of Cmp 1a and 26 % of Cmp 1a | 10 % of Cmp 1a and -2 % of Cmp 1a and 9 % of Cmp 1a | 2 % of Cmp 1a and -1.33 % of Cmp 1a and 4.67 % of Cmp 1a | 7 % of Cmp 1a and -0.667 % of Cmp 1a and -6 % of Cmp 1a | 5 % of Cmp 1a and 1.33 % of Cmp 1a and 10 % of Cmp 1a | 4 % of Cmp 1a and 29 % of Cmp 1a and -0.333 % of Cmp 1a | -9 % of Carbachol and 12 % of Carbachol and 5 % of Carbachol | –
– | 1.26 | 88 ± 6 | – | Cc1c(-c2nc(CC(=O)NC(C)c3ccccc3)no2)sc2nccn12 (stereo not drawn) [Compound 1.21, CC(C1=CC=CC=C1)NC(CC2=NOC(C3=C(C)N4C=CN=C4S3)=N2)=O] | 51 % of Cmp 1a and 103 % of Cmp 1a and 63 % of Cmp 1a | 99 % of Cmp 1a and 106 % of Cmp 1a and 96 % of Cmp 1a and 82 % of Cmp 1a and 98 % of Cmp 1a | 106 % of Cmp 1a and 89 % of Cmp 1a and 74 % of Cmp 1a and 87 % of Cmp 1a and 93 % of Cmp 1a | 113 % of Cmp 1a and 82 % of Cmp 1a and 55 % of Cmp 1a and 93 % of Cmp 1a and 79 % of Cmp 1a | 58 % of Cmp 1a and 46 % of Cmp 1a and 13 % of Cmp 1a and 61 % of Cmp 1a and 35 % of Cmp 1a | 30 % of Cmp 1a and 22 % of Cmp 1a and -9 % of Cmp 1a and 34 % of Cmp 1a and 9 % of Cmp 1a | 11 % of Cmp 1a and 3.59 % of Cmp 1a and -6 % of Cmp 1a and 13 % of Cmp 1a and 2 % of Cmp 1a | -0.321 % of Cmp 1a and 1.12 % of Cmp 1a and 16 % of Cmp 1a and 9 % of Cmp 1a and 1.36 % of Cmp 1a | -0.311 % of Cmp 1a and 5 % of Cmp 1a and 16 % of Cmp 1a and 8 % of Cmp 1a and 4 % of Cmp 1a | -0.779 % of Cmp 1a and 5.49 % of Cmp 1a and -3.74 % of Cmp 1a and 4.43 % of Cmp 1a and 2.79 % of Cmp 1a | 6.41 % of Cmp 1a and 9 % of Cmp 1a and -8 % of Cmp 1a and 7.41 % of Cmp 1a and -0.105 % of Cmp 1a | 8 % of Cmp 1a and 24 % of Cmp 1a and 21 % of Cmp 1a | -6 % of Carbachol and -2 % of Carbachol and -1.22 % of Carbachol | three-fold reduction to a complete loss of activity
